Assay results taken from ChEMBL document CHEMBL1155756, “Pacovatinins A-C, new labdane diterpenoids from the seeds of Renealmia exaltata” (J Nat Prod, 2001).
Values after ≈ are worked out from the molar mass of the structure shown.

How the values were obtained:
KB = experiment: Cytotoxicity against human KB cells; type: functional, cell-based
L1210 = experiment: Cytotoxicity against mouse L1210 cells; type: functional, cell-based

Compound	IC50 (KB)	IC50 (L1210)
C=C1[C@@H](O)C[C@H]2C(C)(C)[C@@H](O)CC[C@]2(C)[C@H]1C/C=C1\CCOC1=O [PACOVATININ B]	> 10 µg/mL	> 10 µg/mL
C=C1[C@@H](O)C[C@H]2C(C)(C)C(=O)CC[C@]2(C)[C@H]1C/C=C1/CCOC1=O [PACOVATININ C]	7.3 µg/mL (≈ 22 µM)	4.7 µg/mL (≈ 14.1 µM)
